From patent US20150344444A1, “BET-PROTEIN-INHIBITING DIHYDROXYQUINOXALINONES” (BAYER PHARMA AKTIENGESELLSCHAFT, priority 2012, published 2015)

Legend:
B16F10 cells = assay: B16F10 cell proliferation assay (alamarBlue); assay type: cell-based; settings: B16-F10; inhibition of cell proliferation, 96 hours, mouse melanoma cell line
Experimental: In accordance with the invention, the ability of the substances to inhibit cell proliferation was determined Cell viability was determined by means of the alamarBlue® reagent (Invitrogen) in a Victor X3 Multilabel Reader (Perkin Elmer). The excitation wavelength was 530 nm and the emission wavelength […].
The B16F10 cells (ATCC, CRL-6475) were sown at a concentration of 300-500 cells/well in 100 μl of growth medium (DMEM with phenol red, 10% FCS) on 96-well microtitre plates.
After overnight incubation at 37° C., the fluorescence values were determined (CI values). Then the plates were treated with various substance dilutions (1E-5 M, 3E-6 M, 1E-6 M, 3E-7 M, 1E-7 M, 3E-8 M, 1E-8 M) and incubated at 37° C. over 96 hours (MOLM-13, B16F10 cells) or 120 hours (MOLP-8 cells). Subsequently, the fluorescence values were determined (CO values). For the data analysis, the CI values were subtracted from the CO values and the results were compared between cells which had been treated with various dilutions of the substance or only with buffer solution. The IC50 values (substance concentration needed for 50% inhibition of cell proliferation) were calculated therefrom.
B16F10 mouse melanoma cell line

[1] = target: T1, BRD4 Bromo Domain 2 [BRD4(2)] (Homo sapiens, UniProt O60885); assay: BRD4(2)/acetylated peptide H4 binding assay (TR-FRET); settings: inhibition of interaction between His6-tagged BRD4(2) (amino acids 357-445) and acetylated histone H4 peptide
T1 construct: N-terminally His6-tagged BRD4(2) (amino acids 357-445); made in house; host or cells: E. coli
Description: Protein-Protein Interaction Assay: BRD4/Acetylated Peptide H4 Binding Assay
2. Assay Description for BRD4 Bromo Domain 2 [BRD4(2)]
To assess the BRD4(2) binding strength of the substances described in this application, the ability thereof to inhibit the interaction between BRD4(2) and acetylated histone H4 in a dose-dependent manner was quantified.
For this purpose, a time-resolved fluorescence resonance energy transfer (TR-FRET) assay was used, which measures the binding between N-terminally His6-tagged BRD4(2) (amino acids 357-445) and a synthetic acetylated histone H4 (Ac-H4) peptide with sequence SGRGK(Ac)GGK(Ac)GLGK(Ac)GGAK(Ac)RHRKVLRDNGSGSK-biotin. The recombinant BRD4(2) protein produced in house according to Filippakopoulos et al., Cell, 2012, 149:214-231 was expressed in E. coli and purified by means of (Ni-NTA) affinity and (Sephadex G-75) size exclusion chromatography. The Ac-H4 peptide can be purchased, for example, from Biosyntan (Berlin, Germany).
In the assay, typically 11 different concentrations of each substance (0.1 nM, 0.33 nM, 1.1 nM, 3.8 nM, 13 nM, 44 nM, 0.15 μM, 0.51 μM, 1.7 μM, 5.9 μM and 20 μM) were analysed as duplicates on the same microtitre plate. For this purpose, 100-fold concentrated solutions in DMSO were prepared by serial dilutions (1:3.4) of a 2 mM stock solution into a clear, 384-well microtitre plate (Greiner Bio-One, Frickenhausen, Germany). From this, 50 nl were transferred into a black test plate (Greiner Bio-One, Frickenhausen, Germany). The test was started by the addition of 2 μl of a 2.5-fold concentrated BRD4(2) solution (final concentration typically 100 nM in the 5 μl of reaction volume) in aqueous assay buffer [50 mM HEPES pH 7.5, 50 mM sodium chloride (NaCl); 50 mM potassium fluoride (KF); 0.25 mM CHAPS and 0.05% serum albumin (BSA)] to the substances in the test plate. This was followed by a 10-minute incubation step at 22° C. for the pre-equilibration of putative complexes between BRD4(2) and the substances.
The mixture was then incubated in the dark at 22° C. for one hour and then at 4° C. for at least 3 hours and for no longer than overnight. The formation of BRD4(2)/Ac-H4 complexes was determined by the measurement of the resonance energy transfer from the streptavidin-Eu chelate to the anti-6His-XL665 antibody present in the reaction. For this purpose, the fluorescence emission was measured at 620 nm and 665 nm after excitation at 330-350 nm in a TR-FRET measuring instrument, for example a Rubystar or Pherastar (both from BMG Lab Technologies, Offenburg, Germany) or a Viewlux (Perkin-Elmer). The ratio of the emissions at 665 nm and at 622 nm was taken as an indicator of the amount of BRD4(2)/Ac-H4 complexes formed.
The data (ratios) obtained were normalized, with 0% inhibition corresponding to the mean from the measurements for a set of controls (typically 32 data points) in which all the reagents were present. In these, in place of test substances, 50 nl of DMSO (100%) were used Inhibition of 100% corresponded to the mean from the measurements for a set of controls (typically 32 data points) in which all the reagents except BRD4(2) were present. The IC50 was determined by regression analysis based on a 4-parameter equation (minimum, maximum, IC50, Hill; Y=max+(min−max)/(1+(X/IC50)Hill)).

Which IC50 (B16F10 cells) does the source give for `C[C@@H]1C(=O)N(C)c2ccc(Nc3ccc(C(=O)NC4CCN(C)CC4)cc3)cc2N1Cc1c(F)cccc1F` (stereo in doubt) [Example 39, 4-{[4-(2,6-difluorobenzyl)-1,3-dimethyl-2-oxo-1,2,3,4-tetrahydroquinoxalin-6-yl]amino}-N-(1-methylpiperidin-4-yl)benzamide] here?
Its IC50 is 3280 nM.

What about the IC50 [1] of the same compound?
The IC50 was 262 nM.

Which results are given for `C[C@@H]1C(=O)N(C)c2ccc(Nc3ccc(C(=O)NC4CCC(N5CCN(CC6CC6)CC5)CC4)cc3)cc2N1Cc1c(F)cccc1F` (stereo in doubt) [Example 40, N-{4-[4-(cyclopropylmethyl)piperazin-1-yl]cyclohexyl}-4-{[4-(2,6-difluorobenzyl)-1,3-dimethyl-2-oxo-1,2,3,4-tetrahydroquinoxalin-6-yl]amino}benzamide]?
IC50 (B16F10 cells): 4980 nM; IC50 [1]: 386 nM

Which IC50 (B16F10 cells) does the source give for `C[C@@H]1C(=O)N(C)c2ccc(Nc3ccc(C(=O)NC4CCCC4)cc3)cc2N1C1CCCC1` [Example 1, N-cyclopentyl-4-{[(3R)-4-cyclopentyl-1,3-dimethyl-2-oxo-1,2,3,4-tetrahydroquinoxalin-6-yl]amino}benzamide] here?
Its IC50 is 1500 nM.

And the IC50 [1]?
Its IC50 is 326 nM.

For `C[C@@H]1C(=O)N(C)c2ccc(Nc3ccc(C(=O)NC4CC4)cc3)cc2N1C1CCCC1` [Example 2, 4-{[(3R)-4-cyclopentyl-1,3-dimethyl-2-oxo-1,2,3,4-tetrahydroquinoxalin-6-yl]amino}-N-cyclopropylbenzamide], which IC50 (B16F10 cells) is on record?
The IC50 was 1690 nM.

And the IC50 [1]?
Its IC50 is 222 nM.

`C[C@@H]1C(=O)N(C)c2ccc(Nc3ccc(S(=O)(=O)N(C)C)cc3)cc2N1C1CCCC1` [Example 3, 4-{[(3R)-4-cyclopentyl-1,3-dimethyl-2-oxo-1,2,3,4-tetrahydroquinoxalin-6-yl]amino}-N,N-dimethylbenzenesulphonamide] was tested. Which IC50 (B16F10 cells) did it give?
Its IC50 is 327 nM.

What about the IC50 [1] of the same compound?
Its IC50 is 85 nM.

With `C[C@@H]1C(=O)N(C)c2ccc(Nc3ccc(C(=O)N4CCOCC4)cc3)cc2N1C1CCCC1` [Example 6, (3R)-4-cyclopentyl-1,3-dimethyl-6-{[4-(morpholin-4-ylcarbonyl)phenyl]amino}-3,4-dihydroquinoxalin-2(1H)-one] as the compound, how does the IC50 (B16F10 cells) read?
The IC50 was 371 nM.

And the IC50 [1]?
Its IC50 is 80 nM.

Which IC50 (B16F10 cells) does the source give for `CC(C)NC(=O)c1ccc(Nc2ccc3c(c2)N(C2CCCC2)[C@H](C)C(=O)N3C)cc1` [Example 7, 4-{[(3R)-4-cyclopentyl-1,3-dimethyl-2-oxo-1,2,3,4-tetrahydroquinoxalin-6-yl]amino}-N-isopropylbenzamide] here?
Its IC50 is 1020 nM.

What about the IC50 [1] of the same compound?
Its IC50 is 159 nM.

With `C[C@@H]1C(=O)N(C)c2ccc(Nc3ccc(C(=O)N(C)C)cc3)cc2N1C1CCCC1` [Example 8, 4-{[(3R)-4-cyclopentyl-1,3-dimethyl-2-oxo-1,2,3,4-tetrahydroquinoxalin-6-yl]amino}-N,N-dimethylbenzamide] as the compound, how does the IC50 (B16F10 cells) read?
The IC50 was 584 nM.

And the IC50 [1]?
Its IC50 is 171 nM.

What does the source list for `C[C@@H]1C(=O)N(C)c2ccc(Nc3ccc(C(=O)NCC4COC4)cc3)cc2N1Cc1ccccc1` [Example 9, 4-{[(3R)-4-benzyl-1,3-dimethyl-2-oxo-1,2,3,4-tetrahydroquinoxalin-6-yl]amino}-N-(oxetan-3-ylmethyl)benzamide]?
IC50 (B16F10 cells): 365 nM; IC50 [1]: 62 nM

Which IC50 [1] does the source give for `C[C@@H]1C(=O)N(C)c2ccc(Nc3ccc(C(=O)NC4CC4)cc3)cc2N1Cc1ccccc1` [Example 10, 4-{[(3R)-4-benzyl-1,3-dimethyl-2-oxo-1,2,3,4-tetrahydroquinoxalin-6-yl]amino}-N-cyclopropylbenzamide] here?
The IC50 was 64 nM.

Which results are given for `C[C@@H]1C(=O)N(C)c2ccc(Nc3ccc(C(=O)NC4CCN(C)CC4)cc3)cc2N1Cc1ccccc1` [Example 11, 4-{[(3R)-4-benzyl-1,3-dimethyl-2-oxo-1,2,3,4-tetrahydroquinoxalin-6-yl]amino}-N-(1-methylpiperidin-4-yl)benzamide]?
IC50 (B16F10 cells): 768 nM; IC50 [1]: 107 nM

`C[C@@H]1C(=O)N(C)c2ccc(Nc3ccc(C(=O)N4CCOCC4)cc3)cc2N1Cc1ccccc1` [Example 12, (3R)-4-benzyl-1,3-dimethyl-6-{[4-(morpholin-4-ylcarbonyl)phenyl]amino}-3,4-dihydroquinoxalin-2(1H)-one] was tested. Which IC50 (B16F10 cells) did it give?
The IC50 was 179 nM.

What about the IC50 [1] of the same compound?
Its IC50 is 47 nM.

What does the source list for `C[C@@H]1C(=O)N(C)c2ccc(Nc3ccc(S(=O)(=O)N4CCOCC4)cc3)cc2N1Cc1ccccc1` [Example 13, (3R)-4-benzyl-1,3-dimethyl-6-{[4-(morpholin-4-ylsulphonyl)phenyl]amino}-3,4-dihydroquinoxalin-2(1H)-one]?
IC50 (B16F10 cells): 136 nM; IC50 [1]: 51 nM

How did the IC50 (B16F10 cells) turn out when `C[C@@H]1C(=O)N(C)c2ccc(Nc3ccc(S(=O)(=O)N(C)C)cc3)cc2N1Cc1ccccc1` [Example 14, 4-{[(3R)-4-benzyl-1,3-dimethyl-2-oxo-1,2,3,4-tetrahydroquinoxalin-6-yl]amino}-N,N-dimethylbenzenesulphonamide] was run?
Its IC50 is 178 nM.

And the IC50 [1]?
Its IC50 is 78 nM.

For `C[C@@H]1C(=O)N(C)c2ccc(Nc3ccc(S(=O)(=O)N4CCN(C)CC4)cc3)cc2N1Cc1ccccc1` [Example 15, (3R)-4-benzyl-1,3-dimethyl-6-({4-[(4-methylpiperazin-1-yl)sulphonyl]phenyl}amino)-3,4-dihydroquinoxalin-2(1H)-one], which IC50 (B16F10 cells) is on record?
The IC50 was 224 nM.

And the IC50 [1]?
Its IC50 is 51 nM.

Which IC50 (B16F10 cells) does the source give for `C[C@@H]1C(=O)N(C)c2ccc(Nc3ccc(C(=O)N4CC5(CCS5(=O)=O)C4)cc3)cc2N1Cc1ccccc1` [Example 16, (3R)-4-benzyl-6-({4-[(1,1-dioxido-1-thia-6-azaspiro[3.3]hept-6-yl)carbonyl]phenyl}amino)-1,3-dimethyl-3,4-dihydroquinoxalin-2(1H)-one] here?
The IC50 was 251 nM.

And the IC50 [1]?
The IC50 was 97 nM.

With `COc1ccc(CN2c3cc(Nc4ccc(C(=O)NC5CCN(C)CC5)cc4)ccc3N(C)C(=O)[C@H]2C)cc1` [Example 17, 4-{[(3R)-4-(4-methoxybenzyl)-1,3-dimethyl-2-oxo-1,2,3,4-tetrahydroquinoxalin-6-yl]amino}-N-(1-methylpiperidin-4-yl)benzamide] as the compound, how does the IC50 (B16F10 cells) read?
Its IC50 is 378 nM.

And the IC50 [1]?
The IC50 was 83 nM.

For `COc1ccc(CN2c3cc(Nc4ccc(C(=O)N5CCOCC5)cc4)ccc3N(C)C(=O)[C@H]2C)cc1` [Example 18, (3R)-4-(4-methoxybenzyl)-1,3-dimethyl-6-{[4-(morpholin-4-ylcarbonyl)phenyl]amino}-3,4-dihydroquinoxalin-2(1H)-one], which IC50 (B16F10 cells) is on record?
The IC50 was 287 nM.

What about the IC50 [1] of the same compound?
Its IC50 is 111 nM.

How did the IC50 (B16F10 cells) turn out when `COc1ccc(CN2c3cc(Nc4ccc(C(=O)NCC5COC5)cc4)ccc3N(C)C(=O)[C@H]2C)cc1` [Example 19, 4-{[(3R)-4-(4-methoxybenzyl)-1,3-dimethyl-2-oxo-1,2,3,4-tetrahydroquinoxalin-6-yl]amino}-N-(oxetan-3-ylmethyl)benzamide] was run?
Its IC50 is 248 nM.

And the IC50 [1]?
Its IC50 is 110 nM.

`C[C@@H]1C(=O)N(C)c2ccc(Nc3ccc(C(=O)NCC4COC4)cc3)cc2N1C1CCCCCC1` [Example 25, 4-{[(3R)-4-cycloheptyl-1,3-dimethyl-2-oxo-1,2,3,4-tetrahydroquinoxalin-6-yl]amino}-N-(oxetan-3-ylmethyl)benzamide] was tested. Which IC50 [1] did it give?
Its IC50 is 357 nM.
